{"source": "patent US20040110826A1", "about": "“Receptor Antagonists” (priority 2001, published 2004)"}
{"target": "T1, α2C-adrenoceptor (Homo sapiens, UniProt P18825)", "T1 sequence (P18825 1-462)": "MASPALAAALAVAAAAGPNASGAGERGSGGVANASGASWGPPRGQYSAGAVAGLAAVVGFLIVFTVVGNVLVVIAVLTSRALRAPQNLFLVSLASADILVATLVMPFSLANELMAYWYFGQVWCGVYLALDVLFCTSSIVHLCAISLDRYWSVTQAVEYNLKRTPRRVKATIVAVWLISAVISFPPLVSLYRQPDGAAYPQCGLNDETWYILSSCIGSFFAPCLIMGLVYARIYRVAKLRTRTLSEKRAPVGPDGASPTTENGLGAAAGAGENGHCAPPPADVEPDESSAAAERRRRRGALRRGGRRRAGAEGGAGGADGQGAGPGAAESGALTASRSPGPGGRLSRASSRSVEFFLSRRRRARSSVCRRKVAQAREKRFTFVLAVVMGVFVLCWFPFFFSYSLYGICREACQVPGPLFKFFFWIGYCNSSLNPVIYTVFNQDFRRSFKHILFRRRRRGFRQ", "experiment": "α2c-Adrenoceptor binding test (3H-MK-912 binding, HepG2 cell membrane fraction)", "design": "the membrane fraction of the cultured cells was used; endogenous in cells; host or cells: HepG2 (human hepatoma) cell membrane fraction", "conditions": "0.5 h, test compound 10^−7 mol/l, read-out: Inhibition ratio (%) against α2c-adrenoceptor binding", "description": "Adrenoceptor Binding Activity (α2c-Adrenoceptor Binding Test)\nThis test was carried out according to the method of Schaak et al. [Journal of Pharmacological Experimental Therapeutics, Vol. 281, p. 983 (1997)] as slightly modified.\nHuman hepatocyto HepG2 cells were cultured in DMEM medium (GIBCO BRL) containing 10% fetal bovine serum (FBS), 100 units/ml penicillin and 100 μg/ml streptomycin, and the membrane fraction of the cultured cells was used. The cultured cells were washed with phosphate-buffered saline (PBS), then scraped with a scraper and recovered by centrifugation at 800 rpm for 5 minutes. To the cells was added a buffer [50 mmol/l tris(hydroxymethyl)aminomethane: Tris, 5 mmol/l ethylenediamine tetraacetic acid (EDTA), pH 7.5], and the cells were suspended using Polytron Homogenizer (Kinematica), followed by centrifugation at 39,000×g for 10 minutes. The precipitate thus obtained was re-suspended in the same amount of the buffer, and the cell suspension was obtained by centrifugation and removing the supernatant in a similar manner.\nTo 100 μl of the cell suspension were added 80 μl of tritium-labeled MK-912 (methyl-^3H: 2.89 TBq/mmol; New England Nuclear) (final concentration: 1.0 nmol/l) and 20 μl of a test compound. The mixture was allowed to stand at 25° C. for 30 minutes and then rapidly filtered by suction through a glass fiber filter treated with 0.3% polyethyleneimine (GF/C; Whatman). The filter was immediately washed 3 times with 200 μl of an ice-cooled buffer and transferred to a vial. A liquid scintillator (ULTIMA GOLD; Packard) was added thereto and the radioactivity was measured with a liquid scintillation counter (Packard).\nThe inhibition ratio of the test compound against the α2C-adrenoceptor binding (^3H-MK-912 binding) was calculated using the following equation.\nInhibition ratio (%)={1−(amount of the binding in the presence of the test compound−amount of the nonspecific binding)/(amount of the total binding−amount of the nonspecific binding)}×100\n(Note) Amount of the total binding means the amount of radioactivity of ^3H-MK-912 bound in the absence of the test compound. Amount of the nonspecific binding means the amount of radioactivity of ^3H-MK-912 bound in the presence of 10 μmol/l Yohimbine (Sigma). Amount of the binding in the presence of the test compound means the amount of radioactivity of ^3H-MK-912 bound in the presence of varied concentrations of the test compound.", "units": {"inhibition at 0.1 µM": "%"}}
{"smiles": "COCCNc1ncc(CN2CCc3ccccc3C2)c2nc(-c3ccco3)nn12", "note": "[Compound 127, 2-(2-Furyl)-5-(2-methoxyethylamino)-8-(1,2,3,4-tetrahydroisoquinolin-2-ylmethyl)[1,2,4]triazolo[1,5-c]pyrimidine]", "inhibition at 0.1 µM": 68}
{"smiles": "COc1cc2c(cc1OC)CN(Cc1cnc(NCCCO)n3nc(-c4ccco4)nc13)CC2", "note": "[Compound 182, 8-(6,7-Dimethoxy-1,2,3,4-tetrahydroisoquinolin-2-ylmethyl)-2-(2-furyl)-5-(3-hydroxypropylamino)[1,2,4]triazolo[1,5-c]pyrimidine]", "inhibition at 0.1 µM": 72}
{"smiles": "Nc1ncc(CN2CCc3ccccc3C2)c2nc(-c3ccco3)nn12", "note": "[Compound 19, 5-Amino-2-(2-furyl)-8-(1,2,3,4-tetrahydroisoquinolin-2-ylmethyl)[1,2,4]triazolo[1,5-c]pyrimidine]", "inhibition at 0.1 µM": 96}
{"smiles": "COc1ccc2c(c1)CCN(Cc1cnc(N)n3nc(-c4ccco4)nc13)C2", "note": "[Compound 89, 5-Amino-2-(2-furyl)-8-(6-methoxy-1,2,3,4-tetrahydroisoquinolin-2-ylmethyl)[1,2,4]triazolo[1,5-c]pyrimidine]", "inhibition at 0.1 µM": 86}
{"smiles": "CN(Cc1ccccc1)c1ncc(CN2CCN(c3ccccc3F)CC2)c2nc(-c3ccco3)nn12", "note": "[Compound 370, 8-[4-(2-Fluorophenyl)piperazin-1-ylmethyl]-2-(2-furyl)-5-(N-methylbenzylamino)[1,2,4]triazolo[1,5-c]pyrimidine]", "inhibition at 0.1 µM": 91}
{"smiles": "Cc1ccc2c(c1)CN(Cc1cnc(N)n3nc(-c4ccco4)nc13)CC2", "note": "[Compound 195, 5-Amino-2-(2-furyl)-8-(7-methyl-1,2,3,4-tetrahydroisoquinolin-2-ylmethyl)[1,2,4]triazolo[1,5-c]pyrimidine]", "inhibition at 0.1 µM": 87}
{"smiles": "N#Cc1ccccc1N1CCN(Cc2cnc(N)n3nc(-c4ccco4)nc23)CC1", "note": "[Compound 59, 5-Amino-8-[4-(2-cyanophenyl)piperazin-1-ylmethyl]-2-(2-furyl)[1,2,4]triazolo[1,5-c]pyrimidine]", "inhibition at 0.1 µM": 65}
{"smiles": "Nc1ncc(CN2CCN(c3ccccc3)CC2)c2nc(C3CCCCC3)nn12", "note": "[Compound 166, 5-Amino-2-cyclohexyl-8-(4-phenylpiperazin-1-ylmethyl)[1,2,4]triazolo[1,5-c]pyrimidine]", "inhibition at 0.1 µM": 84}
{"smiles": "Cc1ccccc1N1CCN(Cc2cnc(N)n3nc(-c4ccco4)nc23)CC1", "note": "[Compound 55, 5-Amino-2-(2-furyl)-8-[4-(2-methylphenyl)piperazin-1-ylmethyl][1,2,4]triazolo[1,5-c]pyrimidine]", "inhibition at 0.1 µM": 92}
{"smiles": "CSc1ncc(CN2CCc3ccccc3C2)c2nc(-c3ccco3)nn12", "note": "[Compound 452, 2-(2-Furyl)-5-methylthio-8-(1,2,3,4-tetrahydroisoquinolin-2-ylmethyl)[1,2,4]triazolo[1,5-c]pyrimidine]", "inhibition at 0.1 µM": 58}
{"smiles": "O=c1[nH]cc(CN2CCN(c3ccccc3)CC2)c2nc(-c3ccco3)nn12", "note": "[Compound 483, 2-(2-Furyl)-8-(4-phenylpiperazin-1-ylmethyl)-6H-[1,2,4]triazolo[1,5-c]pyrimidin-5-one]", "inhibition at 0.1 µM": 60}
{"smiles": "C1=C(CN2CCc3ccccc3C2)c2nc(-c3ccco3)nn2C2=NCCN12", "note": "[Compound 491, 2-(2-Furyl)-4-(1,2,3,4-tetrahydroisoquinolin-2-ylmethyl)-6,7-dihydro-1,3,5a,8,8b-pentaaza-as-indacene]", "inhibition at 0.1 µM": 74}
{"smiles": "Nc1ncc(CN2CCC(c3ccccc3)CC2)c2nc(-c3ccco3)nn12", "note": "[Compound 203, 5-Amino-2-(2-furyl)-8-(4-phenylpiperidinomethyl)[1,2,4]triazolo[1,5-c]pyrimidine]", "inhibition at 0.1 µM": 83}
{"smiles": "Nc1ncc(CN2CCN(c3ccccc3)CC2)c2nc(-c3ccco3)nn12", "note": "[Compound 2, 5-Amino-2-(2-furyl)-8-(4-phenylpiperazin-1-ylmethyl)[1,2,4]triazolo[1,5-c]pyrimidine]", "inhibition at 0.1 µM": 80}
{"smiles": "Nc1ncc(CN2CCN(c3ccccc3Cl)CC2)c2nc(-c3ccco3)nn12", "note": "[Compound 49, 5-Amino-8-[4-(2-chlorophenyl)piperazin-1-ylmethyl]-2-(2-furyl)[1,2,4]triazolo[1,5-c]pyrimidine]", "inhibition at 0.1 µM": 91}
{"smiles": "Nc1ncc(CN2CCN(c3ccccc3F)CC2)c2nc(-c3ccco3)nn12", "note": "[Compound 45, 5-Amino-8-[4-(2-fluorophenyl)piperazin-1-ylmethyl]-2-(2-furyl)[1,2,4]triazolo[1,5-c]pyrimidine]", "inhibition at 0.1 µM": 88}
{"smiles": "Nc1ncc(CN2CCN(c3ncccn3)CC2)c2nc(-c3ccco3)nn12", "note": "[Compound 23, 5-Amino-2-(2-furyl)-8-[4-(2-pyrimidinyl)piperazin-1-ylmethyl][1,2,4]triazolo[1,5-c]pyrimidine]", "inhibition at 0.1 µM": 70}
{"smiles": "Nc1ncc(CN2CCN(c3ccccc3)CC2)c2nc(-c3cccnc3)nn12", "note": "[Compound 144, 5-Amino-8-(4-phenylpiperazin-1-ylmethyl)-2-(3-pyridyl)[1,2,4]triazolo[1,5-c]pyrimidine]", "inhibition at 0.1 µM": 75}
{"smiles": "Nc1ncc(CNCC2COc3ccccc3O2)c2nc(-c3ccco3)nn12", "note": "(stereo not shown) [Compound 213, 5-Amino-8-(1,4-benzodioxan-2-ylmethylaminomethyl)-2-(2-furyl)[1,2,4]triazolo[1,5-c]pyrimidine]", "inhibition at 0.1 µM": 96}
